Source: ChEMBL document CHEMBL4400545 (Bioorg Med Chem, 2019)

Legend:
[1] = biological target: Sodium- and chloride-dependent GABA transporter 1 (Mus musculus) (UniProt P31648); assay: Inhibition of mouse GAT-1 assessed as percentage of remaining specific binding of NO711 at 1 uM after 4 hrs by LC-ESI-MS/ms analysis relative to control
[2] = biological target: Sodium- and chloride-dependent GABA transporter 1 (Mus musculus) (UniProt P31648); assay: Inhibition of mouse GAT-1 assessed as percentage of remaining specific binding of NO711 at 100 nM after 4 hrs by LC-ESI-MS/ms analysis relative to control
[3] = biological target: T1, Sodium- and chloride-dependent GABA transporter 1 (Mus musculus, UniProt P31648); assay: Inhibition of mouse GAT-1 expressed in HEK293 cells assessed as decrease in [3H]GABA uptake preincubated for 25 mins followed by [3H]GABA addition and measured after 4 mins by scintillation counting analysis; format: cell-based
[4] = biological target: T1, Sodium- and chloride-dependent GABA transporter 1; assay: Binding affinity to mouse GAT-1 expressed in HEK293 cells after 4 hrs in presence of NO711 by LC-ESI-MS/ms analysis; format: cell-based
[5] = biological target: T2, GABA transporter 4 (Mus musculus) (UniProt P31650); assay: Inhibition of mouse GAT-4 expressed in HEK293 cells assessed as remaining [3H]GABA uptake at 100 uM preincubated for 25 mins followed by [3H]GABA addition and measured after 4 mins by scintillation counting analysis; format: cell-based
T2 sequence (whole entry): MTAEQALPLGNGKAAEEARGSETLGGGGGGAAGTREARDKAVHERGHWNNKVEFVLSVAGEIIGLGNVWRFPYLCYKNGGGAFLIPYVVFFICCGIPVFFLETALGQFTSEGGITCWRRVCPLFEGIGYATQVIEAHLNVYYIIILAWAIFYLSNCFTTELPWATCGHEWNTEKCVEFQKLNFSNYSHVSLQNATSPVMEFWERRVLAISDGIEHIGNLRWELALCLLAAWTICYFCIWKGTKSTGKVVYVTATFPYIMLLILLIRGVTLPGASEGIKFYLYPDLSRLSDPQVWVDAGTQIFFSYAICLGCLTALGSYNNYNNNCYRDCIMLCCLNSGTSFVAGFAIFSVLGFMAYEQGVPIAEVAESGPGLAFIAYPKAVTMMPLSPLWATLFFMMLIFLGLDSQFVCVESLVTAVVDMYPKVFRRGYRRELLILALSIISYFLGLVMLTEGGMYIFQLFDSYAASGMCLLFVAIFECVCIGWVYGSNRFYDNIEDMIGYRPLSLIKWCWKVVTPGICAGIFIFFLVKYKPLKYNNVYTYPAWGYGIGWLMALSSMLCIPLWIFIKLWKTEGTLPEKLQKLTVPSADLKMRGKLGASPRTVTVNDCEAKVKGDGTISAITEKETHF

[6] = test system: Sodium- and chloride-dependent GABA transporter 2 (Mus musculus); assay: Inhibition of mouse GAT-3 expressed in HEK293 cells assessed as remaining [3H]GABA uptake at 100 uM preincubated for 25 mins followed by [3H]GABA addition and measured after 4 mins by scintillation counting analysis
[7] = test system: Sodium- and chloride-dependent betaine transporter (Mus musculus); assay: Inhibition of mouse GAT-2 expressed in HEK293 cells assessed as remaining [3H]GABA uptake at 100 uM preincubated for 25 mins followed by [3H]GABA addition and measured after 10 mins by scintillation counting analysis
[8] = biological target: T3, Sodium- and chloride-dependent GABA transporter 1 (Rattus norvegicus, UniProt P23978); assay: Inhibition of GAT-1 in rat brain homogenate assessed as decrease in [3H]GABA uptake preincubated for 8 mins followed by [3H]GABA addition and measured after 8 mins by scintillation counting analysis; format: tissue-based
GABA transporter 4 = biological target: T4, GABA transporter 4 (Mus musculus, UniProt P31650); assay: Inhibition of mouse GAT-4 expressed in HEK293 cells assessed as decrease in [3H]GABA uptake preincubated for 25 mins followed by [3H]GABA addition and measured after 4 mins by scintillation counting analysis; format: cell-based
T4 sequence (P31650 whole entry): T2 sequence (whole entry)

[9] = biological target: T3, Sodium- and chloride-dependent GABA transporter 1; assay: Inhibition of GAT-1 in rat brain homogenate; format: tissue-based
[10] = biological target: Sodium- and chloride-dependent GABA transporter 1 (Mus musculus) (UniProt P31648); assay: Inhibition of mouse GAT-1 assessed as percentage of remaining specific binding of NO711 at 40 uM after 4 hrs by LC-ESI-MS/ms analysis relative to control
[11] = biological target: Sodium- and chloride-dependent GABA transporter 1 (Mus musculus) (UniProt P31648); assay: Inhibition of mouse GAT-1 assessed as percentage of remaining specific binding of NO711 at 4 uM after 4 hrs by LC-ESI-MS/ms analysis relative to control

O=C(O)C1CCCN(CCO/N=C/c2ccccc2-c2ccc(F)cc2Cl)C1 (racemic)
Activity [1]: 11% | Activity [2]: Below limit of detection | IC50 [3]: 66.1 nM | Ki [4]: 10 nM | Activity [5]: 80.9% | Activity [6]: 62.6% | Activity [7]: 61.6%

O=C(O)C1CCCN(CCO/N=C/c2ccc(-c3ccccc3)cc2)C1 (racemic)
Activity [1]: 80% | Activity [2]: 20%

O=C(O)C1CCCN(CCO/N=C/c2ccccc2-c2ccccc2)C1 (racemic)
Activity [1]: 47% | Activity [2]: 20%

Cc1ccsc1C(=CCCN1CCC[C@@H](C(=O)O)C1)c1sccc1C [TIAGABINE]
Ki [4]: 55 nM

O=C(O)C1CCCN(CCO/N=C/c2ccccc2-c2ccc(F)cc2F)C1 (racemic)
Activity [1]: 17% | Activity [2]: 16% | IC50 [3]: 85.1 nM | Ki [4]: 13.8 nM | Activity [5]: 62.5% | Activity [6]: 90.9% | Activity [7]: 78.3%

O=C(O)C1CCCN(CCO/N=C/c2ccccc2-c2ccc(F)cc2)C1 (racemic)
Activity [1]: Below limit of detection | Activity [2]: 38%

O=C(O)C1CCCN(CCO/N=C/c2ccc(-c3ccc(C(F)(F)F)cc3Cl)o2)C1 (racemic)
Activity [1]: 83% | Activity [2]: Below limit of detection

O=C(O)C1=CCCN(CCO/N=C/c2ccccc2-c2ccc(Cl)cc2Cl)C1
IC50 [3]: 5.37 nM | Ki [4]: 5.13 nM

O=C(O)C1CCCN(CCO/N=C/C(c2ccccc2)c2ccccc2)C1 (racemic)
Activity [1]: 41% | Activity [2]: 20%

O=C(O)C1CCCN(CCO/N=C/c2ccccc2-c2c(F)cccc2F)C1 (racemic)
Activity [1]: 39% | Activity [2]: 17%

O=C(O)C1CCCN(CCO/N=C/c2ccccc2-c2ccccc2F)C1 (racemic)
Activity [1]: 25% | Activity [2]: Below limit of detection

O=C(O)C1CCCN(CCO/N=C/c2cccnc2-c2ccc(Cl)cc2Cl)C1 (racemic)
Activity [1]: 31% | Activity [2]: Below limit of detection

O=C(O)C1CCCN(CCO/N=C/c2cc(F)ccc2-c2ccccc2Cl)C1 (racemic)
Activity [1]: 41% | Activity [2]: 16%

O=C(O)C1CCCN(CCO/N=C/c2ccccc2-c2cccc(Cl)c2)C1 (racemic)
Activity [1]: Below limit of detection | Activity [2]: 38%

O=C(O)C1CCCN(CCO/N=C/c2cccc(-c3ccccc3)c2)C1 (racemic)
Activity [1]: 87% | Activity [2]: 20%

O=C(O)C1=CCCN(CCON=C(c2ccccc2)c2ccccc2)C1
IC50 [8]: 40 nM

O=C(O)C1CCCN(CCO/N=C/c2ccccc2-c2ccccc2Cl)C1 (racemic)
Activity [1]: 26% | Activity [2]: Below limit of detection

O=C(O)C1CCCN(CCO/N=C/c2ccccc2-c2ccc3ccccc3c2)C1 (racemic)
Activity [1]: 89% | Activity [2]: Below limit of detection

O=C(O)C1CCCN(CCO/N=C/c2ccccc2-c2ccc(Cl)cc2Cl)C1 (racemic)
Activity [1]: 5% | Activity [2]: Below limit of detection | IC50 [3]: 38.9 nM | IC50 (GABA transporter 4): 70800 nM | Ki [4]: 10.5 nM

O=C(O)C1CCCN(CCO/N=C/c2ccccc2-c2ccc(Cl)cc2F)C1 (racemic)
Activity [1]: 24% | Activity [2]: 17%

Cc1onc(-c2ccc(Cl)cc2)c1/C=N/OCCN1CCCC(C(=O)O)C1 (racemic)
Activity [1]: 7% | Activity [2]: 48%

O=C(O)[C@@H]1CCCN(CCO/N=C/c2ccccc2-c2ccc(Cl)cc2Cl)C1
IC50 [3]: 60.3 nM | IC50 (GABA transporter 4): 63100 nM | Ki [4]: 5.89 nM

O=C(O)C1CCCN(CCO/N=C/c2cccn2-c2ccc(C(F)(F)F)cc2)C1 (racemic)
Activity [1]: 91% | Activity [2]: Below limit of detection

O=C(O)C1CCCN(CCO/N=C/c2ccccc2-c2cccc(F)c2)C1 (racemic)
Activity [1]: Below limit of detection | Activity [2]: 38%

O=C(O)C1CCCN(CCO/N=C/c2ccccc2-c2cccs2)C1 (racemic)
Activity [1]: 7% | Activity [2]: 48%

O=C(O)C1CCCN(CCO/N=C/c2ccccc2-c2cc(F)ccc2F)C1 (racemic)
Activity [1]: 71% | Activity [2]: 17%

O=C(O)C1CCCN(CCO/N=C/c2sccc2-c2ccc(F)cc2Cl)C1 (racemic)
Activity [1]: 24% | Activity [2]: Below limit of detection

O=C(O)C1CCCN(CCO/N=C/c2ccccc2-c2ccc(Cl)cc2)C1 (racemic)
Activity [1]: Below limit of detection | Activity [2]: 38%

O=C(O)[C@@H]1CCCN(CCO/N=C(\Cc2ccccc2F)c2ccccc2F)C1
IC50 [9]: 80 nM

CC(/C=N/OCCN1CCCC(C(=O)O)C1)(CCC#N)c1ccccc1 (racemic)
Activity [1]: 7% | Activity [2]: 48%

O=C(O)C1CCCN(CCO/N=C/c2sccc2-c2ccc(Cl)cc2Cl)C1 (racemic)
Activity [1]: 12% | Activity [2]: Below limit of detection | IC50 [3]: 28.2 nM | IC50 (GABA transporter 4): 72400 nM | Ki [4]: 11.7 nM

O=C(O)C1CCCN(CCO/N=C/c2cc(F)ccc2-c2ccccc2F)C1 (racemic)
Activity [1]: 42% | Activity [2]: 16%

O=C(O)C1CCCN(CCO/N=C/c2ccccc2-c2cccc(F)c2F)C1 (racemic)
Activity [1]: 39% | Activity [2]: 17%

O=C(O)[C@@H]1CCCN(CCO/N=C/c2ccccc2-c2ccc(F)cc2Cl)C1
IC50 [3]: 32.4 nM | Ki [4]: 2.82 nM | Activity [5]: 50.9% | Activity [6]: 77.7% | Activity [7]: 50.1%

O=C(O)C1CCCN(CCO/N=C/c2ccc(-c3ccccc3OC(F)(F)F)o2)C1 (racemic)
Activity [1]: 84% | Activity [2]: Below limit of detection

O=C(O)C1CCCN(CCO/N=C/c2cc(F)ccc2-c2ccccc2)C1 (racemic)
Activity [1]: 58% | Activity [2]: 16%

O=C(O)C1CCCN(CCO/N=C/c2cc(F)ccc2-c2ccc(Cl)cc2Cl)C1 (racemic)
Activity [1]: 16% | Activity [2]: Below limit of detection | IC50 [3]: 170 nM | IC50 (GABA transporter 4): 32400 nM | Ki [4]: 17 nM

NOCCN1CCCC(C(=O)O)C1 (racemic)
Activity [10]: 92% | Activity [11]: 99%

O=C(O)C1=CCCN(CCO/N=C/c2ccccc2-c2ccc(F)cc2F)C1
IC50 [3]: 56.2 nM | Ki [4]: 4.47 nM

O=C(O)C1CCCN(CCO/N=C/c2sccc2-c2ccccc2)C1 (racemic)
Activity [1]: 48%

O=C(O)C1CCCN(CCO/N=C/c2c[nH]nc2-c2ccc(F)cc2)C1 (racemic)
Activity [1]: 7% | Activity [2]: 48%

O=C(O)[C@@H]1CCCN(CCO/N=C/c2ccccc2-c2ccc(F)cc2F)C1
IC50 [3]: 102 nM | Ki [4]: 5.89 nM | Activity [5]: 62.5% | Activity [6]: 75.5% | Activity [7]: 56.6%
